Reference: PubChem BioAssay AID256 (DTP/NCI, 2004)
Values joined by “and” are separate entries in the source; they are usually repeats but may differ in a detail not shown here. Equal entries are not always repeated. Inconclusive results and toxic doses are left out.

Test system: CD2F1 mice, L1210 leukemia ip, survival T/C
Test: NCI In Vivo Anticancer Drug Screen. Data for tumor model L1210 Leukemia (intraperitoneal) in CD2F1 (CDF1) mice
Conditions: higher = longer survival
How it was run: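 Ratio T/C, where T is the treated-group value and C the vehicle-dosed control value, from mice implanted with a transplantable tumor.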

## O=C1c2ccccc2C(=O)N1CCN1C(=O)c2ccccc2C1=O
endpoint: mean survival time, dose: 75.0 mg/kg/injection, schedule: Q01DX001 (ip), vehicle: saline with Tween-80
  T/C: 94 % of control
endpoint: mean survival time, dose: 150.0 mg/kg/injection, schedule: Q01DX001 (ip), vehicle: saline with Tween-80
  T/C: 95 % of control
endpoint: mean survival time, dose: 300.0 mg/kg/injection, schedule: Q01DX001 (ip), vehicle: saline with Tween-80
  T/C: 94 % of control

## C[n+]1cccc2cccc(C(=O)O)c21
endpoint: mean survival time, dose: 37.5 mg/kg/injection, schedule: Q01DX009 (ip), vehicle: saline with Tween-80
  T/C: 112 % of control
endpoint: mean survival time, dose: 75.0 mg/kg/injection, schedule: Q01DX009 (ip), vehicle: saline with Tween-80
  T/C: 109 % of control
endpoint: mean survival time, dose: 150.0 mg/kg/injection, schedule: Q01DX009 (ip), vehicle: saline with Tween-80
  T/C: 107 % of control

## Cc1ccc(/C(C#N)=C2C=C(Br)/C(=N\O)C=C/2Cl)cc1
endpoint: mean survival time, dose: 25.0 mg/kg/injection, schedule: Q01DX009 (ip), vehicle: acetone
  T/C: 96 % of control
endpoint: mean survival time, dose: 50.0 mg/kg/injection, schedule: Q01DX009 (ip), vehicle: acetone
  T/C: 98 % of control
endpoint: mean survival time, dose: 100.0 mg/kg/injection, schedule: Q01DX009 (ip), vehicle: acetone
  T/C: 98 % of control

## O=C1OC(Cl)(c2cccc3ccccc23)c2ccccc21 (stereo not drawn)
endpoint: mean survival time, dose: 100.0 mg/kg/injection, schedule: Q04DX003 (ip), vehicle: Klucel (hydroxypropylcellulose) (HPC)
  T/C: 87 % of control
endpoint: mean survival time, dose: 200.0 mg/kg/injection, schedule: Q04DX003 (ip), vehicle: Klucel (hydroxypropylcellulose) (HPC)
  T/C: 87 % of control
endpoint: mean survival time, dose: 400.0 mg/kg/injection, schedule: Q04DX003 (ip), vehicle: Klucel (hydroxypropylcellulose) (HPC)
  T/C: 94 % of control

## [Pt+4].[c-]1ccccc1C1CCCC[N-]1.[c-]1ccccc1C1CCCC[N-]1 (stereo not drawn)
endpoint: median survival time, dose: 3.12 mg/kg/injection, schedule: Q04DX003 (ip), vehicle: saline
  T/C: 107 % of control
endpoint: median survival time, dose: 6.25 mg/kg/injection, schedule: Q04DX003 (ip), vehicle: saline
  T/C: 107 % of control
endpoint: median survival time, dose: 12.5 mg/kg/injection, schedule: Q04DX003 (ip), vehicle: saline
  T/C: 103 % of control
endpoint: median survival time, dose: 25.0 mg/kg/injection, schedule: Q04DX003 (ip), vehicle: saline
  T/C: 103 % of control
endpoint: median survival time, dose: 50.0 mg/kg/injection, schedule: Q04DX003 (ip), vehicle: saline
  T/C: 107 % of control
endpoint: median survival time, dose: 100.0 mg/kg/injection, schedule: Q04DX003 (ip), vehicle: saline
  T/C: 103 % of control
endpoint: median survival time, dose: 200.0 mg/kg/injection, schedule: Q04DX003 (ip), vehicle: saline
  T/C: 103 % of control

## COc1cccc2c1C(=O)c1c(O)c3c(c(O)c1C2=O)C[C@@](O)(/C(C)=N/NC(=O)c1ccc(Cl)cc1)C[C@@H]3OC1CC(N)C(O)C(C)O1 (stereo partly drawn)
endpoint: mean survival time, dose: 0.5 mg/kg/injection, schedule: Q01DX009 (ip), vehicle: saline
  T/C: 96 % of control
endpoint: mean survival time, dose: 0.5 mg/kg/injection, schedule: Q01DX009 (ip), vehicle: suspension in saline
  T/C: 110 % of control
endpoint: mean survival time, dose: 1.0 mg/kg/injection, schedule: Q01DX009 (ip), vehicle: suspension in saline
  T/C: 115 % of control
endpoint: mean survival time, dose: 2.0 mg/kg/injection, schedule: Q01DX009 (ip), vehicle: saline
  T/C: 122 % of control
endpoint: mean survival time, dose: 2.0 mg/kg/injection, schedule: Q01DX009 (ip), vehicle: suspension in saline
  T/C: 118 % of control
endpoint: mean survival time, dose: 16.0 mg/kg/injection, schedule: Q01DX009 (ip), vehicle: saline
  T/C: 108 % of control

## CC(C)OC(=O)Nc1ccccn1
endpoint: mean survival time, dose: 100.0 mg/kg/injection, schedule: Q04DX002 (ip), vehicle: saline with Tween-80
  T/C: 100 % of control
endpoint: mean survival time, dose: 200.0 mg/kg/injection, schedule: Q04DX002 (ip), vehicle: saline with Tween-80
  T/C: 100 % of control
endpoint: mean survival time, dose: 400.0 mg/kg/injection, schedule: Q04DX002 (ip), vehicle: saline with Tween-80
  T/C: 104 % of control

## C=C(C)CNC1=C(C)C(=O)C2=C(C1=O)[C@@H](COC(N)=O)[C@]1(O)[C@H]3[C@@H](CN21)N3C (stereo partly drawn)
endpoint: mean survival time, dose: 1.5 mg/kg/injection, schedule: Q01DX001 (ip), vehicle: water
  T/C: 97 % of control
endpoint: mean survival time, dose: 3.0 mg/kg/injection, schedule: Q01DX001 (ip), vehicle: water
  T/C: 97 % of control
endpoint: mean survival time, dose: 6.0 mg/kg/injection, schedule: Q01DX001 (ip), vehicle: water
  T/C: 103 % of control
endpoint: mean survival time, dose: 12.0 mg/kg/injection, schedule: Q01DX001 (ip), vehicle: water
  T/C: 98 % of control
endpoint: mean survival time, dose: 24.0 mg/kg/injection, schedule: Q01DX001 (ip), vehicle: water
  T/C: 106 % of control
endpoint: mean survival time, dose: 100.0 mg/kg/injection, schedule: Q01DX001 (ip), vehicle: distilled water + Tween-80
  T/C: 156 % of control

## [Br][Pt+2][Br].[NH-]C(CC([NH-])c1ccccc1)c1ccccc1 (stereo not drawn)
endpoint: mean survival time, dose: 12.5 mg/kg/injection, schedule: Q04DX003 (ip), vehicle: saline with Tween-80
  T/C: 101 % of control and 107 % of control and 112 % of control
endpoint: mean survival time, dose: 25.0 mg/kg/injection, schedule: Q04DX003 (ip), vehicle: saline with Tween-80
  T/C: 102 % of control and 89 % of control
endpoint: mean survival time, dose: 50.0 mg/kg/injection, schedule: Q04DX003 (ip), vehicle: saline with Tween-80
  T/C: 91 % of control

## CC1=C(N2CC2)C(=O)c2c(COC(N)=O)c3n(c2C1=O)C[C@H]1N[C@@H]31
endpoint: mean survival time, dose: 3.0 mg/kg/injection, schedule: Q01DX001 (ip), vehicle: distilled water + Tween-80
  T/C: 106 % of control
endpoint: mean survival time, dose: 6.0 mg/kg/injection, schedule: Q01DX001 (ip), vehicle: distilled water + Tween-80
  T/C: 118 % of control
endpoint: mean survival time, dose: 12.0 mg/kg/injection, schedule: Q01DX001 (ip), vehicle: distilled water + Tween-80
  T/C: 122 % of control
endpoint: mean survival time, dose: 24.0 mg/kg/injection, schedule: Q01DX001 (ip), vehicle: distilled water + Tween-80
  T/C: 120 % of control

## OC(Cc1cc(CC(O)(C(F)(F)F)C(F)(F)F)ncn1)(C(F)(F)F)C(F)(F)F
endpoint: mean survival time, dose: 100.0 mg/kg/injection, schedule: Q04DX003 (ip), vehicle: saline with Tween-80
  T/C: 97 % of control
endpoint: mean survival time, dose: 200.0 mg/kg/injection, schedule: Q04DX003 (ip), vehicle: saline with Tween-80
  T/C: 93 % of control
endpoint: mean survival time, dose: 400.0 mg/kg/injection, schedule: Q04DX003 (ip), vehicle: saline with Tween-80
  T/C: 91 % of control

## CCOC(=O)c1c([N+](=O)[O-])cnn1C1OC(COC(C)=O)C(OC(C)=O)C1OC(C)=O (stereo not drawn)
endpoint: median survival time, dose: 8.75 mg/kg/injection, schedule: Q01DX005 (ip), vehicle: distilled water + Tween-80
  T/C: 104 % of control
endpoint: median survival time, dose: 17.5 mg/kg/injection, schedule: Q01DX005 (ip), vehicle: distilled water + Tween-80
  T/C: 107 % of control
endpoint: median survival time, dose: 35.0 mg/kg/injection, schedule: Q01DX005 (ip), vehicle: distilled water + Tween-80
  T/C: 96 % of control
endpoint: median survival time, dose: 70.0 mg/kg/injection, schedule: Q01DX005 (ip), vehicle: distilled water + Tween-80
  T/C: 101 % of control
endpoint: median survival time, dose: 140.0 mg/kg/injection, schedule: Q01DX005 (ip), vehicle: distilled water + Tween-80
  T/C: 101 % of control

## CC(=O)Nc1cccc(C)n1
endpoint: mean survival time, dose: 75.0 mg/kg/injection, schedule: Q01DX001 (ip), vehicle: saline
  T/C: 98 % of control
endpoint: mean survival time, dose: 150.0 mg/kg/injection, schedule: Q01DX001 (ip), vehicle: saline
  T/C: 98 % of control

## Nc1ncnc2nc(CCCCc3ccccc3)[nH]c12
endpoint: mean survival time, dose: 3.0 mg/kg/injection, schedule: Q01DX009 (ip), vehicle: saline with Tween-80
  T/C: 95 % of control
endpoint: mean survival time, dose: 6.0 mg/kg/injection, schedule: Q01DX009 (ip), vehicle: saline with Tween-80
  T/C: 106 % of control
endpoint: mean survival time, dose: 12.0 mg/kg/injection, schedule: Q01DX009 (ip), vehicle: saline with Tween-80
  T/C: 104 % of control

## O=[N+]([O-])O.O=[N+]([O-])O.[NH-]C1CCCCC1[NH-].[Pt+2] (stereo not drawn)
endpoint: mean survival time, dose: 0.03 mg/kg/injection, schedule: Q01DX009 (ip), vehicle: other
  T/C: 120 % of control
endpoint: mean survival time, dose: 0.13 mg/kg/injection, schedule: Q04DX003 (ip), vehicle: other
  T/C: 120 % of control
endpoint: mean survival time, dose: 0.19 mg/kg/injection, schedule: Q04DX003 (ip), vehicle: saline
  T/C: 119 % of control
endpoint: mean survival time, dose: 0.25 mg/kg/injection, schedule: Q01DX009 (ip), vehicle: dextrose
  T/C: 98 % of control
endpoint: mean survival time, dose: 0.39 mg/kg/injection, schedule: Q01DX005 (ip), vehicle: saline
  T/C: 119 % of control
endpoint: mean survival time, dose: 0.39 mg/kg/injection, schedule: Q04DX003 (ip), vehicle: saline
  T/C: 120 % of control
endpoint: mean survival time, dose: 0.5 mg/kg/injection, schedule: Q01DX001 (ip), vehicle: other
  T/C: 113 % of control
endpoint: mean survival time, dose: 1.0 mg/kg/injection, schedule: Q01DX009 (ip), vehicle: dextrose
  T/C: 119 % of control
endpoint: mean survival time, dose: 1.0 mg/kg/injection, schedule: Q01DX009 (ip), vehicle: other
  T/C: 90 % of control
endpoint: mean survival time, dose: 3.12 mg/kg/injection, schedule: Q01DX005 (oral), vehicle: saline
  T/C: 97 % of control
endpoint: mean survival time, dose: 4.0 mg/kg/injection, schedule: Q04DX003 (ip), vehicle: other
  T/C: 95 % of control
endpoint: mean survival time, dose: 6.25 mg/kg/injection, schedule: Q01DX005 (oral), vehicle: saline
  T/C: 97 % of control
endpoint: mean survival time, dose: 12.5 mg/kg/injection, schedule: Q04DX003 (ip), vehicle: saline
  T/C: 100 % of control

## C/C=C\C1OC1(C)c1cc(=O)c2c(C)cc3c(c2o1)C(=O)c1c(O)c(C2CC(C)(N(C)C)C(OC(C)=O)C(C)O2)cc(C2CC(N(C)C)C(O)C(C)O2)c1C3=O (stereo not drawn)
endpoint: mean survival time, dose: 0.35 mg/kg/injection, schedule: Q04DX003 (ip), vehicle: saline with Tween-80
  T/C: 102 % of control
endpoint: median survival time, dose: 0.22 mg/kg/injection, schedule: Q01DX005 (ip), vehicle: saline + alcohol
  T/C: 124 % of control
endpoint: median survival time, dose: 0.25 mg/kg/injection, schedule: Q01DX005 (ip), vehicle: saline + alcohol
  T/C: 120 % of control
endpoint: median survival time, dose: 0.36 mg/kg/injection, schedule: Q01DX005 (ip), vehicle: saline + alcohol
  T/C: 120 % of control
endpoint: median survival time, dose: 1.0 mg/kg/injection, schedule: Q01DX005 (ip), vehicle: saline + alcohol
  T/C: 120 % of control
endpoint: median survival time, dose: 2.78 mg/kg/injection, schedule: Q01DX005 (ip), vehicle: saline + alcohol
  T/C: 172 % of control
